In paper PMC9569578, “In Planta, In Vitro and In Silico Studies of Chiral N^6-Benzyladenine Derivatives: Discovery of Receptor-Specific S-Enantiomers with Cytokinin or Anticytokinin Activities” (International Journal of Molecular Sciences, 2022):

Legend:
Experiment in all cases: radioligand competition with 3H-isopentenyladenine, plant microsomes
Format in all cases: binding
Settings in all cases: 1 µM compound vs 3H-iP (2 pmol per sample), membranes of N. benthamiana
[1] = biological target: T1, AHK3 (Arabidopsis thaliana, UniProt Q9C5U1)
T1 construct: receptor fused with GFP, transiently expressed in Nicotiana benthamiana leaves; microsomal membranes
T1 sequence (Q9C5U1 1-1036): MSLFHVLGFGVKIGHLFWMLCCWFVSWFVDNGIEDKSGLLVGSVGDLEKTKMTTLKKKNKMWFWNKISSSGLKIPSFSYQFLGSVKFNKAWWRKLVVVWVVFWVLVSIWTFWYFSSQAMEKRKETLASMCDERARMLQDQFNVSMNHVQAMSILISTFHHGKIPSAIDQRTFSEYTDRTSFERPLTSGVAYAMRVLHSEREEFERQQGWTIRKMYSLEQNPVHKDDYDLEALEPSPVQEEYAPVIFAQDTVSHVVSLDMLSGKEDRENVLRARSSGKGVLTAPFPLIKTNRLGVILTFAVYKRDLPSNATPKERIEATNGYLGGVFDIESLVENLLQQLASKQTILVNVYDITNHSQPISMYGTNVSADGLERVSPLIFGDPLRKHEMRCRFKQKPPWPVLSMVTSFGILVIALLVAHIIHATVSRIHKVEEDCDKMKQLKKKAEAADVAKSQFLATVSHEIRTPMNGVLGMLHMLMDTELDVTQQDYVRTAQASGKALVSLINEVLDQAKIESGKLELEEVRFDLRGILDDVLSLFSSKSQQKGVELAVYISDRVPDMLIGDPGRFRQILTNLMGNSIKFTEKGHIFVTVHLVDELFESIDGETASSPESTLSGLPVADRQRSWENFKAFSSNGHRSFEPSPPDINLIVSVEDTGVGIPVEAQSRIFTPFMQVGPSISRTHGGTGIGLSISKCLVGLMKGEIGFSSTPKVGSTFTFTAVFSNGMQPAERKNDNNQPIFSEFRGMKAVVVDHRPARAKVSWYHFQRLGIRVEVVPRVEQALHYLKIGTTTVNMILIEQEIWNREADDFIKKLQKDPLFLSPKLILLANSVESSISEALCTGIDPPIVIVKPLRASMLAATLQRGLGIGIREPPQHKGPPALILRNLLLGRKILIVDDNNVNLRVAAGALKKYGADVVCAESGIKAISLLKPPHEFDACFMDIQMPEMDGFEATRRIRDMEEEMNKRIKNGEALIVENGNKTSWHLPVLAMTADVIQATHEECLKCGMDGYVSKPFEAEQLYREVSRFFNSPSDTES
Excerpt: radioligand competition with 3H-isopentenyladenine, plant microsomes on AHK3

[2] = biological target: T2, AHK2 (Arabidopsis thaliana, UniProt Q9C5U2)
T2 construct: receptor fused with GFP, transiently expressed in Nicotiana benthamiana leaves; microsomal membranes
T2 sequence (Q9C5U2 1-1176): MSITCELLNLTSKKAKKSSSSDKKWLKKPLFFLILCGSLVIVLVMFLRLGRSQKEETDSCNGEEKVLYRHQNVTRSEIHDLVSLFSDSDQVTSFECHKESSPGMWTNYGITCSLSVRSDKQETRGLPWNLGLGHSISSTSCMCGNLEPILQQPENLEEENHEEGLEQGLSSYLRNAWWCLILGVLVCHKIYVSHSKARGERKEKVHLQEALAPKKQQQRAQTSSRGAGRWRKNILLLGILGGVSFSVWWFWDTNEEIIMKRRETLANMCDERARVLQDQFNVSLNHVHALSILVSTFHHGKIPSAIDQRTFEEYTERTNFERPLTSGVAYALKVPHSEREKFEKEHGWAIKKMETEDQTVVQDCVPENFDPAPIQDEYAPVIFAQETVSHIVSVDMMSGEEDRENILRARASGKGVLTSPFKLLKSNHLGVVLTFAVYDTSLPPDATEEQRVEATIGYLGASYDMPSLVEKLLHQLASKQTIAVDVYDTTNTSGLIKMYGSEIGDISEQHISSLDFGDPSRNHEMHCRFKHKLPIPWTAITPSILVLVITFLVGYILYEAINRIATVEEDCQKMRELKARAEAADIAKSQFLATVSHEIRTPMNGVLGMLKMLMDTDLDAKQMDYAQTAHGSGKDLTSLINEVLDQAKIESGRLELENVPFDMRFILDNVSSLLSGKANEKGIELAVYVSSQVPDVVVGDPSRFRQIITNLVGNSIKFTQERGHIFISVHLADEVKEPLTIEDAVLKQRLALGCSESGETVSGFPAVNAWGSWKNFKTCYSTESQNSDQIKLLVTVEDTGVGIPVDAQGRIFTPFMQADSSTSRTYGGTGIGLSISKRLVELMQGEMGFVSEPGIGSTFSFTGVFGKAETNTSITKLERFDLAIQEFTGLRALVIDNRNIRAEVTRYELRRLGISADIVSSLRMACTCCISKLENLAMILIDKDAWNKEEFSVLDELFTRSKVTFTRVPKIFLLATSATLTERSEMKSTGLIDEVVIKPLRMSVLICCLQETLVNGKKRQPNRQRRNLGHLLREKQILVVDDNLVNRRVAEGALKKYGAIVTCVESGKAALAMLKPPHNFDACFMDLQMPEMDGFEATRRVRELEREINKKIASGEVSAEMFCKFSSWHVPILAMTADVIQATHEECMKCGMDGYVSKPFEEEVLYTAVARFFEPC
Excerpt: radioligand competition with 3H-isopentenyladenine, plant microsomes on AHK2

[3] = biological target: T3, CRE1/AHK4 (Arabidopsis thaliana, UniProt Q9C5U0)
T3 construct: receptor fused with GFP, transiently expressed in Nicotiana benthamiana leaves; microsomal membranes
Excerpt: radioligand competition with 3H-isopentenyladenine, plant microsomes on CRE1/AHK4

T3 sequence (Q9C5U0 whole entry, the tested form may be a part): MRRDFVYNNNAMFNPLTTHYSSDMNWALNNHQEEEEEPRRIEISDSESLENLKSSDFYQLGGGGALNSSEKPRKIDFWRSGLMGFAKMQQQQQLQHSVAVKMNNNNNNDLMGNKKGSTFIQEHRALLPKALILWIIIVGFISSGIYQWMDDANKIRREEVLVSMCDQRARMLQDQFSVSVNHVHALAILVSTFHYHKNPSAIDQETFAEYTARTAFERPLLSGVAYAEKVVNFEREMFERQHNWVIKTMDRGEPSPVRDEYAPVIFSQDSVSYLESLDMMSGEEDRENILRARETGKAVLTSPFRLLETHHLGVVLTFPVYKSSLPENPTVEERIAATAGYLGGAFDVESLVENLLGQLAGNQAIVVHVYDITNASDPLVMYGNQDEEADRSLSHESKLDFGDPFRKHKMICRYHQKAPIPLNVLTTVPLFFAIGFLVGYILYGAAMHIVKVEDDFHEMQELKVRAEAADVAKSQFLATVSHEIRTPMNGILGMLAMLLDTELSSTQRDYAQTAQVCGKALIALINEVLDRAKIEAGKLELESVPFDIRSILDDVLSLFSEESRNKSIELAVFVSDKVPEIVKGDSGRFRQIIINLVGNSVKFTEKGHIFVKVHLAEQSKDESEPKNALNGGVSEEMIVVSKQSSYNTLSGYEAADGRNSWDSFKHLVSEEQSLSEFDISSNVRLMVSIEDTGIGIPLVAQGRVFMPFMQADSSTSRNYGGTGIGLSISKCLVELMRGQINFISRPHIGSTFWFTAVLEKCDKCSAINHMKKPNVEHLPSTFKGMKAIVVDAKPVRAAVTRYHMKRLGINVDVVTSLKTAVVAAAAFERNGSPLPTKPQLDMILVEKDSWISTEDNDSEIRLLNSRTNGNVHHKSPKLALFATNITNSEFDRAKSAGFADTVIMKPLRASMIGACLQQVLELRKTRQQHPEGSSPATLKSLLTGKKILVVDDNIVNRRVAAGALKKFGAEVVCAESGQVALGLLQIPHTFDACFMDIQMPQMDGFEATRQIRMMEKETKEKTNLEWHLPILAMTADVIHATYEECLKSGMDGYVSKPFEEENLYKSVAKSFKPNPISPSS

| SMILES | АНК3 / 1 μM [1] | АНК2 / 1 μM [2] | CRE1/AHK4 / 1 μM [3] |
| --- | --- | --- | --- |
| C[C@H](Nc1ncnc2[nH]cnc12)c1ccccc1 [5b, N^6-((S)-α-methylbenzyl) adenine] | 46.5 ± 2.2% | 8.9 ± 4.9% |  |
| C[C@H](Nc1nc(Cl)nc2[nH]cnc12)c1ccccc1 [7b, 2-chloro,N^6-((S)-α-methylbenzyl) adenine] | 80.6 ± 1.5% | 3.1 ± 0.4% | 37.1 ± 1.2% |
| C[C@@H](Nc1nc(N)nc2[nH]cnc12)c1ccccc1 [8a, 2-amino,N^6-((R)-α-methylbenzyl) adenine] | 54.7 ± 1.1% | 58.8 ± 1.3% | 30.4 ± 1.0% |
| C[C@H](Nc1nc(F)nc2nc[nH]c12)c1ccccc1 [6b, 2-fluoro,N^6-((S)-α-methylbenzyl) adenine] | 74.7 ± 1.7% | 8.7 ± 0.9% | 45.8 ± 0.3% |
| C[C@@H](Nc1ncnc2[nH]cnc12)c1ccccc1 [5a, N^6-((R)-α-methylbenzyl) adenine] | 97.7 ± 1.0% | 88.9 ± 0.5% | 87.7 ± 1.0% |
| C[C@@H](Nc1nc(Cl)nc2[nH]cnc12)c1ccccc1 [7a, 2-chloro,N^6-((R)-α-methylbenzyl) adenine] | 88.9 ± 0.7% | 42.6 ± 0.4% | 74.1 ± 1.6% |
| C[C@@H](Nc1nc(F)nc2[nH]cnc12)c1ccccc1 [6a, 2-fluoro,N^6-((R)-α-methylbenzyl) adenine] | 99.8 ± 1.5% | 92.1 ± 1.0% | 97.2 ± 0.9% |
